The values below come from ChEMBL document CHEMBL1152057, “A note of caution in the use of receptor binding assays to screen marine organisms: the action of halistanol trisulphate on adenosine receptors” (Bioorg Med Chem Lett, 1992).

The target in assay [1] is T1, Adenosine receptor A1 (Rattus norvegicus) (UniProt P25099).
T1 sequence (whole entry): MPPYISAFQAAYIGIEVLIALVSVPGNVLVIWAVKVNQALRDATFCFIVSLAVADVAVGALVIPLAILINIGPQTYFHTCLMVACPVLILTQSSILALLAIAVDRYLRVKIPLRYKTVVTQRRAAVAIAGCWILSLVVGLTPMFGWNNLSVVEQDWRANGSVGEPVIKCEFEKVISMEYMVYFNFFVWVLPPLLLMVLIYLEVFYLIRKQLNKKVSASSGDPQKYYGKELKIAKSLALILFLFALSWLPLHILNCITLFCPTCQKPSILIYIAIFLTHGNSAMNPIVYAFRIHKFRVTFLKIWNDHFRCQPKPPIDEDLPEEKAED
Kind of assay: Bmax value for adenosine A1 receptor binding at 145 uM.

The target in assay [2] is T2, Adenosine receptor A1 (Rattus norvegicus, UniProt P25099).
T2 sequence (P25099 whole entry): T1 sequence (whole entry)
Kind of assay: Kd value for adenosine A1 receptor binding at 145 uM.

Assay [3] addresses T2, Adenosine receptor A1. Kind of assay: Agonistic activity against adenosine A1 receptor. Format: functional.
Assay [4] deals with T1, Adenosine receptor A1 (Rattus norvegicus). Kind of assay: Bmax value for adenosine A1 receptor binding at 14.5 uM.
Assay [5] addresses T2, Adenosine receptor A1. Kind of assay: Kd value for adenosine A1 receptor binding at 14.5 uM.

In the case of `CC(CCC(C)C(C)(C)C)C1CC[C@H]2[C@@H]3C[C@H](OS(=O)(=O)O)C4C[C@H](OS(=O)(=O)O)[C@@H](OS(=O)(=O)O)CC4(C)[C@H]3CCC12C` (stereo partly specified), the Bmax is 319 fmol/mg in assay [1] and 346 fmol/mg in assay [4]. Further, the Kd (as a rule, the constant that tells how readily two partners part at equilibrium) at Adenosine receptor A1 [2] stood at 10.6 nM; on Adenosine receptor A1 [5] it was 1.39 nM. Moreover, the IC50 (as a rule, the point on the concentration scale where inhibition reaches its midpoint) on Adenosine receptor A1 [3] was 120000 nM.

At Adenosine receptor A1 [3], `COc1cc(-c2oc3c(OC)cc(CCCO)cc3c2C=O)ccc1O` showed an IC50 of 17 nM.
